The source of these data is patent publication US8916575B2, “Quinazoline derivatives for the treatment of viral infections and further diseases” (Janssen R&D Ireland, priority 2011, dated 2014).

Experiment [1] deals with human TLR7 mutant (dIRR2). In words: TLR7 mutant (deletion in second leucine-rich repeat) NFκB-luc cellular reporter assay. Also on record: unit not given here. In kind it is cell-based. Conditions: HEK293 NFκB-luc reporter, mutant TLR7, 6 hours incubation. As for the experimental part:
(§1) The ability of compounds to activate human TLR7 and/or TLR8 was assessed in a cellular reporter assay using HEK293 cells transiently transfected with a TLR7 or TLR8 expression vector and NFκB-luc reporter construct. In one instance the TLR expression construct expresses the respective wild type sequence or a mutant sequence comprising a deletion in the second leucine-rich repeat of the TLR.
(§2) Briefly, HEK293 cells were grown in culture medium (DMEM supplemented with 10% FCS and 2 mM Glutamine). For transfection of cells in 10 cm dishes, cells were detached with Trypsin-EDTA, transfected with a mix of CMV-TLR7 or TLR8 plasmid (750 ng), NFκB-luc plasmid (375 ng) and a transfection reagent and incubated 24 hours at 37° C. in a humidified 5% CO2 atmosphere. Transfected cells were then detached with Trypsin-EDTA, washed in PBS and resuspended in medium to a density of 1.67×10^5 cells/mL. Thirty microliters of cells were then dispensed into each well in 384-well plates, where 10 μL of compound in 4% DMSO was already present. Following 6 hours incubation at 37° C., 5% CO2, the luciferase activity was determined by adding 15 μl of Steady Lite Plus substrate (Perkin Elmer) to each well and readout performed on a ViewLux ultraHTS microplate imager (Perkin Elmer). Dose response curves were generated from measurements performed in quadruplicates. Lowest effective concentrations (LEC) values, defined as the concentration that induces an effect which is at least two fold above the standard deviation of the assay, were determined for each compound.

Another experiment has as its target T1, human TLR8 (Homo sapiens, UniProt Q9NR97).
T1 construct: expressed in transfected cells; host or cells: HEK293
T1 sequence (Q9NR97 27-1041): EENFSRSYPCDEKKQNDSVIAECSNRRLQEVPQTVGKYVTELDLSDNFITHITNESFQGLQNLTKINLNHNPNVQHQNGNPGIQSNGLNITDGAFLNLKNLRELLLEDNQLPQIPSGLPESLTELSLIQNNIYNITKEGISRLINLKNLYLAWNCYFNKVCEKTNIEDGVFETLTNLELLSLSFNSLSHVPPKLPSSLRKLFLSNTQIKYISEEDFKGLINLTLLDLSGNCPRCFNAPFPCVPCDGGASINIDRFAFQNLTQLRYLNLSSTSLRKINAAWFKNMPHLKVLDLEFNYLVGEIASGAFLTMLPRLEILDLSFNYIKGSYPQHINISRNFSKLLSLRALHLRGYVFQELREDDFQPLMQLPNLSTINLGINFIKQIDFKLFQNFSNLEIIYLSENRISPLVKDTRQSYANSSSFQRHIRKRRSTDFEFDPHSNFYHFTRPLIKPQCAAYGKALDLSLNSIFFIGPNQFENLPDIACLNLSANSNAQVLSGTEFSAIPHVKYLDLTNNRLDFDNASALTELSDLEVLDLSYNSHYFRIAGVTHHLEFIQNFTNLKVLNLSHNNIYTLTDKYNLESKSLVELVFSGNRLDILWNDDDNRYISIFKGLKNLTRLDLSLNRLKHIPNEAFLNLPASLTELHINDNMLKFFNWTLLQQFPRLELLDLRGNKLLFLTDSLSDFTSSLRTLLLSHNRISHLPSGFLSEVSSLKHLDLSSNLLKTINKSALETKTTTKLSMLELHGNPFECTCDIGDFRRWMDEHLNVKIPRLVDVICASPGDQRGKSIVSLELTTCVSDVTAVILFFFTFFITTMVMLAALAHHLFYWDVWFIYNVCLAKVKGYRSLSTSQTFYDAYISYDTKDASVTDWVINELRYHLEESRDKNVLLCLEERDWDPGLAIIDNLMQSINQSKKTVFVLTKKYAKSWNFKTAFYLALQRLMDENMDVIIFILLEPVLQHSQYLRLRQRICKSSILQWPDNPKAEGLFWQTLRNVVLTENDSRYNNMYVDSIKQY
In words: TLR8 wild type NFκB-luc cellular reporter assay. In kind it is cell-based. Also on record: unit not given here. The following applies: HEK293 NFκB-luc reporter, 6 hours incubation. As for the experimental part:
as §1, §2
Background: Reporter assays use an easily measured gene product as a stand-in for the process of interest.

Experiment [2] concerns human TLR8 mutant (dIRR2). In words: TLR8 mutant (deletion in second leucine-rich repeat) NFκB-luc cellular reporter assay. In kind it is cell-based. Set-up: unit not given here. The following applies: HEK293 NFκB-luc reporter, mutant TLR8, 6 hours incubation. As for the experimental part: as §1, §2
In experiment [3] the test system is HCV replicon (Huh-7 luc/neo cells). In words: Suppression of HCV replicon replication by conditioned media from PBMC. Format: cell-based, HCV type 1b. Conditions: Hepatitis C virus, compound concentration applied to PBMCs giving 50% reduction of replicon luciferase activity, read-out: PBMC-HUH7_EC50. As for the experimental part:
Activation of human TLR7 results in robust production of interferon by plasmacytoid dendritic cells present in human blood. The potential of compounds to induce interferon was evaluated by looking at the antiviral activity in the HCV replicon system upon incubation with conditioned media from peripheral blood mononuclear cells (PBMC). The HCV replicon assay is based on a bicistronic expression construct, as described by Lohmann et al. (Science (1999) 285: 110-113; Journal of Virology (2003) 77: 3007-15 3019) with modifications described by Krieger et al. (Journal of Virology (2001) 75: 4614-4624). The assay utilized the stably transfected cell line Huh-7 luc/neo harboring an RNA encoding a bicistronic expression construct comprising the wild type NS3-NS5B regions of HCV type 1b translated from an Internal Ribosome Entry Site (IRES) from encephalomyocarditis virus (EMCV), preceded by a reporter gene (Firefly-luciferase) and a selectable marker gene (neoR, neomycine phosphotransferase). The construct is flanked by 5′ and 3′ NTRs (non-translated regions) from HCV type 1b. Continued culture of the replicon cells in the presence of G418 (neoR) is dependent on the replication of the HCV RNA. The stably transfected replicon cells that replicate HCV RNA autonomously and to high levels, encoding inter alia luciferase, were used for profiling of the conditioned cell culture media.
Briefly, PBMCs were prepared from buffy coats of at least two donors using a standard Ficoll centrifugation protocol. Isolated PBMCs were resuspended in RPMI medium supplemented with 10% human AB serum and 2×10^5 cells/well were dispensed into 384-well plates containing compounds (70 μL total volume). After overnight incubation, 10 μL of supernatant was transferred to 384-well plates containing 2.2×10^3 replicon cells/well in 30 μL (plated the day before). Following 24 hours of incubation, replication was measured by assaying luciferase activity using 40 μL/well Steady Lite Plus substrate (Perkin Elmer) and measured with ViewLux ultraHTS microplate imager (Perkin Elmer). The inhibitory activity of each compound on the Huh7-luc/neo cells were reported as EC50 values, defined as the compound concentration applied to the PBMCs resulting in a 50% reduction of luciferase activity which in turn indicates the degree of replication of the replicon RNA on transfer of a defined amount of PBMC culture medium. Recombinant interferon α-2a (Roferon-A) was used as a standard control compound.
On the technique in general: In antiviral work, replicon cells carry a viral genome segment that copies itself.

SMILES strings stand for the structures.

Consider `CCCC[C@@H](CO)Nc1nc(N)nc2cc(OC)c(OC)cc12` [Compound 4], for which the TLR7-dIRR2_LEC in experiment [1] was 2.4. This molecule also displayed a TLR8-wt_LEC on human TLR8 of 2.6. Moreover, the TLR8-dIRR2_LEC in experiment [2] amounted to 1.7. In experiment [3], the EC50 is 3 µM.
In experiment [1], `CCC[C@@H](CCO)Nc1nc(N)nc2cc(OC)c(OC)cc12` [Compound 5] registered a TLR7-dIRR2_LEC of 2.6. Also, the TLR8-wt_LEC at human TLR8 is listed as 6.7. For the same molecule, the TLR8-dIRR2_LEC in experiment [2] is on record as 2.6. Moreover, the EC50 in experiment [3] was found to be 3.3 µM.
As for `CCC[C@@H](CO)Nc1nc(N)nc2cc(OC)c(OC)cc12` [Compound 6], in experiment [1], the TLR7-dIRR2_LEC is listed as 3.4. This molecule also returned a TLR8-wt_LEC at human TLR8 of 4.4. For the same molecule, the TLR8-dIRR2_LEC in experiment [2] came out at 2.3. The EC50 in experiment [3] came out at 3 µM.
The corresponding values for `CC[C@H](C)[C@@H](CO)Nc1nc(N)nc2cc(OC)c(OC)cc12` [Compound 7] are 3.8, 13.8, 9.0 and 12.4 µM.
